Assay results taken from US10487313B2, “Efficient induction of definitive endoderm from pluripotent stem cells” (Novo Nordisk A/S, priority 2011, dated 2019).

Experiments:
Assay type in all cases: cell-based, human
chIPS4 cells = test: OCT4 and SOX17 protein ICC quantification during DE induction, DEF culture system; settings: for OCT4 ICC % positive cells / SOX17 ICC % positive cells: CHIR 3 μM D1 then Activin A D2-3, or D'Amour protocol
Protocol: Human embryonic stem (hES) cells SA121 and chIPS4 (Cellartis) were grown on human fibronectin (Sigma) in DEF culture media (Cellartis) with 30 ng/ml bFGF (Invitrogen) and 10 ng/ml Noggin (Peprotech) in 6-96 well plates. Cells were single cell passaged with Rock inhibitor Y-27632 (Calbiochem) and seeded at a density of 40000 cells/cm2 for experiments. Experiments were initiated 4 d after passage.
(§1) Confluent cultures were washed once in RPMI1640 (Invitrogen) before 24 hour pre-treatment with 0,5-7μM CHIR99021 (Stemgent) in RPMI. Control cells were left untreated in RPMI and D'Amour cells were either left in RPMI or treated with AA (Peprotech)+Wnt3a (R&D Systems) without pre-treatment depending on experimental setup.
After 24 hours, pretreated and control cells were washed once with RPMI before adding 100 ng/ml AA in RPMI. D'Amour cells were also treated with 100 ng/ml AA but with 0,2% FBS instead of B27. 24 h later, 2% B27 (Invitrogen) was added to the AA media for 2-3 d. Control cells were treated with B27 to prevent cell death and D'Amour cells with 2% FBS according to published protocol. Media was changed every day.
• Day 1: Cells were washed carefully in prewarmed (37° C.) RPMI before starting the differentiation. Day1 medium was premixed (CHIR 3 μM in prewarmed RPMI+PEST) and gently added to cell culture. Volumes were adjusted according to plate formats. • Day 2: Cells were washed carefully in prewarmed (37° C.) RPMI before media change. Day2 medium was premixed (100 ng/ml Activin A in prewarmed RPMI+0.1% PEST) and gently added to cell culture. • Day 3: Day3&4 mediums were premixed (100 ng/ml Activin A and 2% B27 in prewarmed RPMI+0.1% PEST) and gently added to cell culture. • Day 4: DE was harvested or reseeded for further differentiation. Cells were checked under the microscope every day.
Cells were washed in PBS+/+ and fixed in 4% formaldehyde for 30 min (10% formaline, VWR). The cells were then washed again three times in PBS and left in PBS (4° C.) until staining. Fixed cells were washed with PBS once, then permeabilized with 0.5% Triton X-100 in PBS for 6 min, washed in PBS and blocked with TNB buffer (0.1 M Tris-HCL pH 7.5, 0.15 M NaCl, 0.5% Blocking Reagent (Perkin Elmer)) for 30 min. Primary antibodies (goat-anti-SOX17 (AF1924, RnD Systems); goat-anti-Brachyury (AF2085, RnD Systems); mouse-anti-OCT4 (sc5279, SantaCruz Biotechnology); goat-anti-PDX1 (AB47383, Abcam)) were added in 0.1% TritonX-100+PBS for 1 h in RT or 4° C. O/N. After a thorough washing step in PBS, secondary antibodies were added together with DAPI in 0.1% Triton X-100+PBS for 45 min at RT, washed thoroughly in PBS and left in PBS until photodocumentation.
Undifferentiated ChIPS4 cells (d0) were either pre-treated for 24 h with CHIR (3 μM) or directly exposed to AA (100 ng/ml) and Wnta3a (25 ng/ml) according to Kroon et al 2008. The cells were then washed and AA was added for 1-4 d.
In addition, the most striking difference between the protocols could be seen in terms of morphology with a much higher degree of cell death during D'Amour treatment. To further strengthen the results, a quantification of SOX17 protein expression was thus performed. chIPS4 cells treated with either the CHIR- or D'Amour-protocol were fixed and stained using a SOX17-specific ab and the images were quantified in respect of total amounts and the percentage of SOX17-positive cells. […] In addition, the total amount of CHIR pre-treated cells was 25% higher than the number seen after D'Amour treatment.

SA121 and chIPS cells = test: CHIR dose dependency: cell survival after titration and AA treatment; settings: then 2 d AA
Protocol: Brachyury expression was analysed after 24 h treatment in SA121 (FIG. 7A) and chIPS cells (FIG. 7C). SOX17 expression was analysed D3 in SA121 (FIG. 7B) and chIPS cells (FIG. 7D)).
as §1
Chir was titrated at concentrations between 1-7 uM and analyzed after 24 h Chir treatment (D1) and after 2 d of following AA treatment (D3).

[1] = tested on: hES cells (SA121) in mTeSR culture system; test: Immunostainings and OCT4/SOX17+ cell quantification in the mTeSR system; settings: Chir 7 μM or D'Amour
Protocol: hES cells (SA121) were cluster passaged from feeders (MEFs) to Matrigel (BD Biosciences) in mTeSR1 media ([…]) and passaged further with Dispase (BD Biosciences) according to the culture system protocol. DE was initiated once clusters started to touch each other Confluent cultures were washed once in RPMI1640 (Invitrogen) before 24 hour pre-treatment with 0,5-7μM CHIR99021 (Stemgent) in RPMI. Control cells were left untreated in RPMI and D'Amour cells were either left in RPMI or treated with AA (Peprotech)+Wnt3a (R&D Systems) without pre-treatment depending on experimental setup. After 24 hours, pretreated and control cells were washed once with RPMI before adding 100 ng/ml AA in RPMI. D'Amour cells were also treated with 100 ng/ml AA but with 0,2% FBS instead of B27. 24 h later, 2% B27 (Invitrogen) was added to the AA media for 2-3 d. Control cells were treated with B27 to prevent cell death and D'Amour cells with 2% FBS according to published protocol. Media was changed every day. Cells were washed in PBS+/+ and fixed in 4% formaldehyde for 30 min (10% formaline, VWR). The cells were then washed again three times in PBS and left in PBS (4° C.) until staining. Fixed cells were washed with PBS once, then permeabilized with 0.5% Triton X-100 in PBS for 6 min, washed in PBS and blocked with TNB buffer (0.1 M Tris-HCL pH 7.5, 0.15 M NaCl, 0.5% Blocking Reagent (Perkin Elmer)) for 30 min. Primary antibodies (goat-anti-SOX17 (AF1924, RnD Systems); goat-anti-Brachyury (AF2085, RnD Systems); mouse-anti-OCT4 (sc5279, SantaCruz Biotechnology); goat-anti-PDX1 (AB47383, Abcam)) were added in 0.1% TritonX-100+PBS for 1 h in RT or 4° C. O/N. After a thorough washing step in PBS, secondary antibodies were added together with DAPI in 0.1% Triton X-100+PBS for 45 min at RT, washed thoroughly in PBS and left in PBS until photodocumentation.

Cc1c[nH]c(-c2cnc(NCCNc3ccc(C#N)cn3)nc2-c2ccc(Cl)cc2Cl)n1 [CHIR, CHIR99021]
OCT4 ICC % positive cells (chIPS4 cells; chIPS4, D1): 91.2% | SOX17 ICC % positive cells (chIPS4 cells; chIPS4, D1): 0.9% | OCT4 ICC % positive cells (chIPS4 cells; chIPS4, D2): 3.1% | SOX17 ICC % positive cells (chIPS4 cells; chIPS4, D2): 68.8% | OCT4 ICC % positive cells (chIPS4 cells; chIPS4, D3): 3.7% | SOX17 ICC % positive cells (chIPS4 cells; chIPS4, D3): 91.5% | total amount of cells higher than after D'Amour treatment (chIPS4 cells; chIPS4, d3, image quantification): 25% | cell survival D3 (SA121 and chIPS cells; CHIR 7 uM 24 h): did not survive d3 | cell survival D3 (SA121 and chIPS cells; CHIR 0.5-1 uM 24 h): did not survive d3 | Oct4+ cell quantification ([1]; D3, Exp ME16b): 6.97 | Sox17+ cell quantification ([1]; D3, Exp ME16b): 62.62 | Oct4+ cell quantification ([1]; D3, Exp ME18b): 2.53 | Sox17+ cell quantification ([1]; D3, Exp ME18b): 82.87 | Oct4+ cell quantification ([1]; D3, Exp ME21a): 0.95 | Sox17+ cell quantification ([1]; D3, Exp ME21a): 91.36 | Oct4+ cell quantification ([1]; D3, Mean of three experiments): 3.5 | Sox17+ cell quantification ([1]; D3, Mean of three experiments): 79.0
